Source: patent US20030013099A1, “Genes regulated by DNA methylation in colon tumors” (priority 2001, published 2003)

Test system: HMEC cells
Assay: microarray differential expression, HMEC cells treated with Aza
Type: cell-based, human
Settings: vs untreated, log base 2, negative = upregulation
Method: HT29 cells were derived from a Grade II adenocarcinoma of the colon obtained from a person. HCT116 cells are a subpopulation of malignant cells isolated from a primary cell culture of a single human colonic carcinoma (Brattain et al. (1981) Cancer Res 41:1751-6). HMEC cells are a primary human epithelial cell line derived from the breast tissue of a normal donor. […] Treated cells were exposed to 500 nM 5-aza-2-deoxycytidine (Aza; Sigma-Aldrich) 24 hours after passage in complete culture medium. Control cultures were treated in parallel with phosphate buffered saline vehicle. After twenty-four hours, culture medium was replaced with drug-free medium. Control and Aza-treated cells were subcultured at equal densities at 1 and 5 days after the initial treatment, and proliferation was measured at the subsequent time point using a Coulter counter (Beckman Coulter, Fullerton Calif.). […]
Cells were harvested and lysed in 1 ml of TRIZOL reagent (5×10^6 cells/ml; Invitrogen). The lysates were vortexed thoroughly and incubated at room temperature for 2-3 minutes and extracted with 0.5 ml chloroform. The extract was mixed, incubated at room temperature for 5 minutes, and centrifuged at 16,000× g for 15 minutes at 4° C. The aqueous layer was collected, and an equal volume of isopropanol was added. Samples were mixed, incubated at room temperature for 10 minutes, and centrifuged at 16,000× g for 20 minutes at 4° C. The supernatant was removed, and the RNA pellet was washed with 1 ml of 70% ethanol, centrifuged at 16,000× g at 4° C., and resuspended in RNAse-free water. The concentration of the RNA was determined by measuring the optical density at 260 nm.
Poly(A) RNA was prepared using an OLIGOTEX mRNA kit (Qiagen) with the following modifications: OLIGOTEX beads were washed in tubes instead of on spin columns, resuspended in elution buffer, and then loaded onto spin columns to recover mRNA. To obtain maximum yield, the mRNA was eluted twice.
Each poly(A) RNA sample was reverse transcribed using MMLV reverse-transcriptase, 0.05 pg/μl oligo-d(T) primer (21mer), 1× first strand buffer, 0.03 units/ul RNAse inhibitor, 500 uM dAT?, 500 uM dGTP, 500 uM dTTP, 40 uM dCTP, and 40 uM either dCTP-Cy3 or dCTP-Cy5 (APB). The reverse transcription reaction was performed in a […] volume containing 200 ng poly(A) RNA using the GEMBRIGHT kit (Incyte Genomics). Specific control poly(A) RNAs (YCFRO6, YCFR45, YCFR67, YCFR85, YCFR43, YCFR22, YCFR23, YCFR25, YCFR44, YCFR26) were synthesized by in vitro transcription from non-coding yeast genomic DNA (W. Lei, unpublished). As quantitative controls, control mRNAs (YCFRO6, YCFR45, YCFR67, and YCFR85) at 0.002 ng, 0.02 ng, 0.2 ng, and 2 ng were diluted into reverse transcription reaction at ratios of 1:100,000, 1:10,000, 1:1000, 1:100 (w/w) to sample mRNA, respectively. To sample differential expression patterns, control mRNAs (YCFR43, YCFR22, YCFR23, YCFR25, YCFR44, YCFR26) were diluted into reverse transcription reaction at ratios of 1:3, 3:1, 1:10, 10:1, 1:25, 25:1 (w/w) to sample mRNA. Reactions were incubated at 37° C. for 2 hours, treated with […] of 0.5M sodium hydroxide, and incubated for 20 minutes at 85° C. to the stop the reaction and degrade the RNA.
cDNAs were purified using two successive CHROMA SPIN 30 gel filtration spin columns (Clontech). Cy3- and Cy5-labeled reaction samples were combined as described below and ethanol precipitated using […] of 100% ethanol. The cDNAs were then dried to completion using a SpeedVAC system (Savant Instruments, Holbrook N.Y.) and resuspended in 14 μl 5× SSC, 0.2% SDS.
Hybridization reactions contained 9 μl of sample mixture containing 0.2 μg each of Cy3 and CyS labeled cDNA synthesis products in 5× SSC, 0.2% SDS hybridization buffer. The mixture was heated to 65° C. for 5 minutes and was aliquoted onto the microarray surface and covered with an 1.8 cm^2 coverslip. […]

[1] = SEQ ID NO:1 hypothetical protein
[2] = SEQ ID NO:3 interferon-inducible protein
[3] = SEQ ID NO:5 chromosome 6p21.3, HLA Class I region
[4] = SEQ ID NO:6 unnamed protein product
[5] = SEQ ID NO:8 putative tumor antigen
[6] = SEQ ID NO:12 cDNA clone ZD16H10
[7] = SEQ ID NO:13, 14 T-cell receptor gamma
[8] = SEQ ID NO:15 pTR5 repetitive sequence
[9] = SEQ ID NO:24 pTR7 repetitive sequence
[10] = SEQ ID NO:25 chromosome 21 segment HS21C049
[11] = SEQ ID NO:26 hypothetical protein

Nc1ncn([C@H]2C[C@H](O)[C@@H](CO)O2)c(=O)n1 [Aza, 5-aza-2-deoxycytidine]
differential expression, Clone ID 2416222, HMEC t/Aza (4d) [1]: 0.00 | differential expression, Clone ID 2416222, HMEC t/Aza (9d) [1]: 0.00 | differential expression, Clone ID 4103545, HMEC t/Aza (4d) (SEQ ID NO:2 Incyte Unique): −0.13 | differential expression, Clone ID 4103545, HMEC t/Aza (9d) (SEQ ID NO:2 Incyte Unique): −0.43 | differential expression, Clone ID 322569, HMEC t/Aza (4d) [2]: −0.53 | differential expression, Clone ID 322569, HMEC t/Aza (9d) [2]: −0.80 | differential expression, Clone ID 5322134, HMEC t/Aza (4d) [3]: −0.32 | differential expression, Clone ID 5322134, HMEC t/Aza (9d) [3]: −0.43 | differential expression, Clone ID 1698458, HMEC t/Aza (4d) [4]: 0.26 | differential expression, Clone ID 1698458, HMEC t/Aza (9d) [4]: 0.26 | differential expression, Clone ID 1871523, HMEC t/Aza (4d) (SEQ ID NO:7 KIAA1046 protein): −0.24 | differential expression, Clone ID 1871523, HMEC t/Aza (9d) (SEQ ID NO:7 KIAA1046 protein): −0.07 | differential expression, Clone ID 6024084, HMEC t/Aza (4d) [5]: 0.00 | differential expression, Clone ID 6024084, HMEC t/Aza (9d) [5]: 0.00 | differential expression, Clone ID 3810006, HMEC t/Aza (4d) (SEQ ID NO:9 Incyte Unique): 0.00 | differential expression, Clone ID 3810006, HMEC t/Aza (9d) (SEQ ID NO:9 Incyte Unique): 0.00 | differential expression, Clone ID 4508879, HMEC t/Aza (4d) (SEQ ID NO:10 Incyte Unique): −0.14 | differential expression, Clone ID 4508879, HMEC t/Aza (9d) (SEQ ID NO:10 Incyte Unique): −0.20 | differential expression, Clone ID 4225379, HMEC t/Aza (4d) (SEQ ID NO:11 U 6 RNA): 0.00 | differential expression, Clone ID 4225379, HMEC t/Aza (9d) (SEQ ID NO:11 U 6 RNA): 0.00 | differential expression, Clone ID 3463713, HMEC t/Aza (4d) [6]: −0.26 | differential expression, Clone ID 3463713, HMEC t/Aza (9d) [6]: −0.48 | differential expression, Clone ID 2998017, HMEC t/Aza (4d) [7]: 0.00 | differential expression, Clone ID 2998017, HMEC t/Aza (9d) [7]: 0.00 | differential expression, Clone ID 4318273, HMEC t/Aza (4d) [8]: 0.00 | differential expression, Clone ID 4318273, HMEC t/Aza (9d) [8]: −0.26 | differential expression, Clone ID 1649414, HMEC t/Aza (4d) (SEQ ID NO:16 Hep27 protein): −0.32 | differential expression, Clone ID 1649414, HMEC t/Aza (9d) (SEQ ID NO:16 Hep27 protein): −0.32 | differential expression, Clone ID 1684742, HMEC t/Aza (4d) (SEQ ID NO:18 cDNA FLJ20222): −0.36 | differential expression, Clone ID 1684742, HMEC t/Aza (9d) (SEQ ID NO:18 cDNA FLJ20222): −0.20 | differential expression, Clone ID 2825816, HMEC t/Aza (4d) (SEQ ID NO:19 KIAA0412): 0.00 | differential expression, Clone ID 2825816, HMEC t/Aza (9d) (SEQ ID NO:19 KIAA0412): 0.00 | differential expression, Clone ID 2440943, HMEC t/Aza (4d) (SEQ ID NO:21 Incyte Unique): −0.20 | differential expression, Clone ID 2440943, HMEC t/Aza (9d) (SEQ ID NO:21 Incyte Unique): −0.26 | differential expression, Clone ID 1294339, HMEC t/Aza (4d) (SEQ ID NO:22 PDGF-B): −0.68 | differential expression, Clone ID 1294339, HMEC t/Aza (9d) (SEQ ID NO:22 PDGF-B): −0.72 | differential expression, Clone ID 5104741, HMEC t/Aza (4d) (SEQ ID NO:23 cDNA FLJ10570): 0.00 | differential expression, Clone ID 5104741, HMEC t/Aza (9d) (SEQ ID NO:23 cDNA FLJ10570): 0.00 | differential expression, Clone ID 1855389, HMEC t/Aza (4d) [9]: −0.14 | differential expression, Clone ID 1855389, HMEC t/Aza (9d) [9]: −0.26 | differential expression, Clone ID 5207613, HMEC t/Aza (4d) [10]: −0.26 | differential expression, Clone ID 5207613, HMEC t/Aza (9d) [10]: −0.37 | differential expression, Clone ID 3207902, HMEC t/Aza (4d) [11]: −0.14 | differential expression, Clone ID 3207902, HMEC t/Aza (9d) [11]: −0.26 | differential expression, Clone ID 4999769, HMEC t/Aza (4d) (SEQ ID NO:27 ZNFpT17): 0.00 | differential expression, Clone ID 4999769, HMEC t/Aza (9d) (SEQ ID NO:27 ZNFpT17): 0.07 | differential expression, Clone ID 408886, HMEC t/Aza (4d) (SEQ ID NO:28 transketolase): −0.26 | differential expression, Clone ID 408886, HMEC t/Aza (9d) (SEQ ID NO:28 transketolase): −0.32 | differential expression, Clone ID 4764233, HMEC t/Aza (4d) (SEQ ID NO:30 GAGE-8): 0.00
